Laboratory results reported in patent US6602897B2, “m-Amino-phenylimino-imidazolidine derivatives for treating urinary incontinence” (Boehringer Ingelheim Pharma KG, priority 2000, dated 2003).
Where a name gives a salt, the structure may show the parent alone.

Assays:
Human Urethra = assay: Efficacy: activity on the human urethra, contraction compared with noradrenalin; settings: percentage of contraction compared with noradrenalin
Protocol: (§1) The efficacy and selectivity of the compounds is determined as follows:
(§2) The maximum contraction in the dog and the activity on the human urethra are given as percentages of contraction compared with noradrenalin. Selectivity in the dog: percentage contraction on the femoral artery in the dog at 10^−5 M—percentage contraction on the carotid artery in the dog at 10^−5 M.

CYP2D6 = CYP2D6 (Homo sapiens, UniProt P10635); assay: Metabolism: breakdown of test substance by enzyme CYP2D6; assay type: in vitro ADME
Chain of CYP2D6 (P10635 whole entry): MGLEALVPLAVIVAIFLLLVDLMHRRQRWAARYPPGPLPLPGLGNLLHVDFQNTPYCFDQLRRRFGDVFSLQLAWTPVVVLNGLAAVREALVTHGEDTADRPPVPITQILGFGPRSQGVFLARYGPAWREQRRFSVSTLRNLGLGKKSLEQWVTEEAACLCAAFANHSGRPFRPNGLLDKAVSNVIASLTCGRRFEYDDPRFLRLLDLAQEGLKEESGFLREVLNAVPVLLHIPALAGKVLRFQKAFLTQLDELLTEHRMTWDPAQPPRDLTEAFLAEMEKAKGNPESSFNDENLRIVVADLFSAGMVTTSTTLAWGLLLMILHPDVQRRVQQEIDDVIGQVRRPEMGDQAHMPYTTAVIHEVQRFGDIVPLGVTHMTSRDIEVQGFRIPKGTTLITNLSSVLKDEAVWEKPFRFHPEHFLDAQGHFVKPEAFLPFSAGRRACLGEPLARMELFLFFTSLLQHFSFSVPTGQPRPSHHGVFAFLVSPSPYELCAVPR
Protocol: To determine the metabolism, the enzyme CYP2D6 was allowed to act on the test substances. After 30 minutes, a check was made to see how much of the test substance put in had been broken down by the enzyme.

HLM = assay: Metabolism: breakdown of test substance by HLM; assay type: in vitro ADME
Protocol: The rate of breakdown under the effect of the enzyme HLM/60 minutes is tested analogously.

[1] = tested on: femoral artery in the dog / carotid artery in the dog; assay: Selectivity in the dog: contraction on femoral artery vs carotid artery; settings: percentage contraction on femoral artery at 10^-5 M — percentage contraction on carotid artery at 10^-5 M
Protocol: as §1, §2

dog = assay: Efficacy: maximum contraction in the dog compared with noradrenalin; settings: percentage of contraction compared with noradrenalin
Protocol: as §1, §2

[2] = Bioavailability after oral vs intravenous administration to fasted male rats, plasma HPLC; assay type: in vivo; settings: rat, oral compared with intravenous, pooled plasma by HPLC
Protocol: In order to determine bioavailability, the test substances were administered orally to a group of 8 male rats which had been fasted. As a comparison, the test substances were administered intravenously to animals in an identical second group. 1 ml blood samples were taken from the animals of both groups at specified times after administration (10 minutes, 30 minutes, 1 hour, 2 hours, and 4 hours, and additionally after 6 hours in the case of the animals treated by oral route). The blood samples taken in each group were mixed together (8 ml). After further working up, the content of the test substances in the blood for the particular time was determined from the plasma by HPLC (High Performance Liquid Chromatography) using standard methods and compared for the two groups.

SMILES: CN(C)c1ccc(Br)c(NC2=NCCN2)c1Cl
- melting point: 142 to 145 °C

SMILES: Cc1c(N(C)C)cc(Cl)c(Br)c1NC1=NCCN1 (as salt: hydrochloride) [Compound 1, 2′-Bromo-3′-chloro-5′-dimethylamino-6′-methylphen-1′-yl-2-iminoimidazolidine]
- melting point: 239 to 240 °C

SMILES: Cc1c(N(C)C)cc(Cl)c(Br)c1NC1=NCCN1 [Compound 1, 2′-Bromo-3′-chloro-5′-dimethylamino-6′-methylphen-1′-yl-2-iminoimidazolidine]
- Activity on Human Urethra (Human Urethra): 100%
- % Breakdown of Substrate after 30 minutes' Incubation with CYP2D6 (CYP2D6): 40.5%
- Breakdown of Substrate after 60 minutes' Incubation with HLM (HLM): 32.1
- Selectivity in the Dog [1]: 0.92
- Activity in the Dog (maximum contraction) (dog): 109%

SMILES: Cc1c(NC2=NCCN2)cc(Br)cc1N(C)C [Compound 3, 3′-bromo-5′-dimethylamino-6′-methylphen-1′-yl-2-iminoimidazolidine]
- melting point: 140 to 143 °C
- Activity on Human Urethra (Human Urethra): 72%
- % Breakdown of Substrate after 30 minutes' Incubation with CYP2D6 (CYP2D6): 33.9%
- Breakdown of Substrate after 60 minutes' Incubation with HLM (HLM): 17.0
- Selectivity in the Dog [1]: 0.76
- Activity in the Dog (maximum contraction) (dog): 87%

SMILES: Cc1c(NC2=NCCN2)cc(Cl)cc1N(C)C [Compound 4, 3′-chloro-5′-dimethylamino-6′-methylphen-1′-yl-2-iminoimidazolidine]
- bioavailability [2]: 11%
- Activity on Human Urethra (Human Urethra): 137%
- % Breakdown of Substrate after 30 minutes' Incubation with CYP2D6 (CYP2D6): 36.5%
- Breakdown of Substrate after 60 minutes' Incubation with HLM (HLM): 17.1
- Selectivity in the Dog [1]: 0.99
- Activity in the Dog (maximum contraction) (dog): 116%

SMILES: Cc1c(N(C)C)cc(Br)c(Br)c1NC1=NCCN1 [Compound 5, 2′-3′-dibromo-5′-dimethylamino-6′-methylphen-1′-yl-2-iminoimidazolidine]
- bioavailability [2]: 0.8%
- Activity on Human Urethra (Human Urethra): 113%
- % Breakdown of Substrate after 30 minutes' Incubation with CYP2D6 (CYP2D6): 22.2%
- Breakdown of Substrate after 60 minutes' Incubation with HLM (HLM): 22.0
- Selectivity in the Dog [1]: 0.71
- Activity in the Dog (maximum contraction) (dog): 89%

SMILES: CN(C)c1cccc(NC2=NCCN2)c1Cl [Compound 6, 2′-chloro-3′-dimethylaminophen-1′-yl-2-iminoimidazolidine]
- melting point: 146 to 148 °C
- Breakdown of Substrate after 60 minutes' Incubation with HLM (HLM): 7.4

SMILES: CN(C)c1c(Br)ccc(NC2=NCCN2)c1Cl [Compound 7, 4′-bromo-2′-chloro-3′-dimethylaminophen-1′-yl-2-iminoimidazolidine]
- melting point: 150 to 155 °C
- % Breakdown of Substrate after 30 minutes' Incubation with CYP2D6 (CYP2D6): 46.4%
- Breakdown of Substrate after 60 minutes' Incubation with HLM (HLM): 55.8
